In paper PMC5218480 (PLoS ONE, 2017):

System: MV-4-11 cells
Assay: Gene expression microarray analysis (Affymetrix PrimeView) and GSEA
Assay type: cell-based, human
Set-up: RFU PODN (11730768_x_at) / Fold change /veh PODN (11730768_x_at) / RFU LINC00158 (11744669_a_at) / Fold change /veh LINC00158 (11744669_a_at) / RFU DUSP10 (11751237_a_at) / Fold change /veh DUSP10 (11751237_a_at) / RFU ID3 (11757404_x_at) / Fold change /veh ID3 (11757404_x_at) / RFU PLEKHG5 (11737974_s_at) / Fold change /veh PLEKHG5 (11737974_s_at) / RFU LRRC4B (11730491_at) / Fold change /veh LRRC4B (11730491_at) / RFU GIMAP4 (11747438_a_at) / Fold change /veh GIMAP4 (11747438_a_at) / RFU KRT8 (11758183_x_at) / Fold change /veh KRT8 (11758183_x_at) / RFU CNN1 (11734310_a_at) / Fold change /veh CNN1 (11734310_a_at) / RFU VPS37D (11726825_at) / Fold change /veh VPS37D (11726825_at) / RFU C10orf10 (11716522_x_at) / Fold change /veh C10orf10 (11716522_x_at) / RFU KIR2DL2 /// KIR2DL4 /// KIR2DL5A /// KIR2DL5B /// KIR2DS1 /// KIR2DS2 /// KIR2DS3 /// KIR2DS4 /// KIR3DL3 /// KIR3DL3 /// KIR3DS1 (11738374_at) / Fold change /veh KIR2DL2 /// KIR2DL4 /// KIR2DL5A /// KIR2DL5B /// KIR2DS1 /// KIR2DS2 /// KIR2DS3 /// KIR2DS4 /// KIR3DL3 /// KIR3DL3 /// KIR3DS1 (11738374_at) / RFU C1QL1 (11718748_at) / Fold change /veh C1QL1 (11718748_at) / RFU TMPRSS4 (11747572_a_at) / Fold change /veh TMPRSS4 (11747572_a_at) / RFU HAMP (11756126_x_at) / Fold change /veh HAMP (11756126_x_at) / RFU RNFT2 (11725882_a_at) / Fold change /veh RNFT2 (11725882_a_at) / RFU NR4A2 (11747474_a_at) / Fold change /veh NR4A2 (11747474_a_at) / RFU ABCC12 (11746883_a_at) / Fold change /veh ABCC12 (11746883_a_at) / RFU TMEM136 (11760407_x_at) / Fold change /veh TMEM136 (11760407_x_at) / RFU CLDN22 /// WWC2 (11732394_at) / Fold change /veh CLDN22 /// WWC2 (11732394_at) / RFU HLA-DPB1 (11760878_x_at) / Fold change /veh HLA-DPB1 (11760878_x_at) / RFU SPINT1 (11716480_a_at) / Fold change /veh SPINT1 (11716480_a_at) / RFU GAP43 (11754022_s_at) / Fold change /veh GAP43 (11754022_s_at) / RFU A4GNT (11735810_at) / Fold change /veh A4GNT (11735810_at) / RFU PRB3 (11715151_x_at) / Fold change /veh PRB3 (11715151_x_at) / RFU TUBB4B (11761932_at) / Fold change /veh TUBB4B (11761932_at) / RFU CAPN14 (11732068_a_at) / Fold change /veh CAPN14 (11732068_a_at) / RFU TMCC2 (11721928_a_at) / Fold change /veh TMCC2 (11721928_a_at) / RFU IRGQ (11745062_a_at) / Fold change /veh IRGQ (11745062_a_at) / RFU FAM174B (11720279_a_at) / Fold change /veh FAM174B (11720279_a_at) / RFU TMPRSS4 (11748680_a_at) / Fold change /veh TMPRSS4 (11748680_a_at) / RFU FAM212B (11763350_a_at) / Fold change /veh FAM212B (11763350_a_at) / RFU PLEKHG5 (11743358_a_at) / Fold change /veh PLEKHG5 (11743358_a_at) / RFU ZSCAN30 (11745921_a_at) / Fold change /veh ZSCAN30 (11745921_a_at) / RFU CMKLR1 (11741424_a_at) / Fold change /veh CMKLR1 (11741424_a_at) / RFU LOC101060620 /// MAPK8IP1 (11723275_at) / Fold change /veh LOC101060620 /// MAPK8IP1 (11723275_at) / RFU SPTSSB (11747773_x_at) / Fold change /veh SPTSSB (11747773_x_at) / RFU PRSS12 (11739890_at) / Fold change /veh PRSS12 (11739890_at) / RFU BIN1 (11741810_x_at) / Fold change /veh BIN1 (11741810_x_at) / RFU WNT11 (11732464_a_at) / Fold change /veh WNT11 (11732464_a_at) / RFU C10orf10 (11716521_a_at) / Fold change /veh C10orf10 (11716521_a_at) / RFU C5orf56 (11738089_at) / Fold change /veh C5orf56 (11738089_at) / RFU CYB561 (11721691_x_at) / Fold change /veh CYB561 (11721691_x_at) / RFU ANKRD19P (11752326_a_at) / Fold change /veh ANKRD19P (11752326_a_at) / RFU OR2T12 /// OR2T33 /// OR2T8 (11738714_s_at) / Fold change /veh OR2T12 /// OR2T33 /// OR2T8 (11738714_s_at) / RFU VCAN (11748164_a_at) / Fold change /veh VCAN (11748164_a_at) / RFU JSRP1 (11732532_at) / Fold change /veh JSRP1 (11732532_at) / RFU KRTAP10-11 (11738290_x_at) / Fold change /veh KRTAP10-11 (11738290_x_at) / RFU MYO3A (11730013_a_at) / Fold change /veh MYO3A (11730013_a_at) / RFU EBF3 (11725865_a_at) / Fold change /veh EBF3 (11725865_a_at) / RFU CAMK2N1 (11719241_x_at) / Fold change /veh CAMK2N1 (11719241_x_at) / RFU C5orf56 (11738088_a_at) / Fold change /veh C5orf56 (11738088_a_at) / RFU OLFML3 (11715873_a_at) / Fold change /veh OLFML3 (11715873_a_at) / RFU LOC100653217 /// NTM (11731650_a_at) / Fold change /veh LOC100653217 /// NTM (11731650_a_at) / RFU MAPK11 (11762145_a_at) / Fold change /veh MAPK11 (11762145_a_at) / RFU FIZ1 (11724087_x_at) / Fold change /veh FIZ1 (11724087_x_at) / RFU OASL (11726364_x_at) / Fold change /veh OASL (11726364_x_at) / RFU SOX15 (11748057_x_at) / Fold change /veh SOX15 (11748057_x_at) / RFU CD79A (11719716_a_at) / Fold change /veh CD79A (11719716_a_at) / RFU HIST1H1D (11736915_at) / Fold change /veh HIST1H1D (11736915_at) / RFU CASKIN2 (11723855_a_at) / Fold change /veh CASKIN2 (11723855_a_at) / RFU LOC730098 (11760151_x_at) / Fold change /veh LOC730098 (11760151_x_at) / RFU OR4N2 (11742367_at) / Fold change /veh OR4N2 (11742367_at) / RFU PRRT2 (11749266_a_at) / Fold change /veh PRRT2 (11749266_a_at) / RFU SNX32 (11753110_a_at) / Fold change /veh SNX32 (11753110_a_at) / RFU CDHR5 (11726645_a_at) / Fold change /veh CDHR5 (11726645_a_at) / RFU RCAN1 (11760418_a_at) / Fold change /veh RCAN1 (11760418_a_at) / RFU FAM167A (11723789_a_at) / Fold change /veh FAM167A (11723789_a_at) / RFU FAM26E (11764081_at) / Fold change /veh FAM26E (11764081_at) / RFU ISYNA1 (11749810_s_at) / Fold change /veh ISYNA1 (11749810_s_at) / RFU ACY1 (11761880_at) / Fold change /veh ACY1 (11761880_at) / RFU 11764098_at / Fold change /veh 11764098_at / RFU SAMD14 (11745864_x_at) / Fold change /veh SAMD14 (11745864_x_at) / RFU NPB (11741838_a_at) / Fold change /veh NPB (11741838_a_at) / RFU TMPRSS6 (11731388_a_at) / Fold change /veh TMPRSS6 (11731388_a_at) / RFU KRTAP10-2 (11738614_at) / Fold change /veh KRTAP10-2 (11738614_at) / RFU ARHGAP8 /// PRR5-ARHGAP8 (11727945_x_at) / Fold change /veh ARHGAP8 /// PRR5-ARHGAP8 (11727945_x_at) / RFU KRTAP5-7 /// NADSYN1 (11734609_at) / Fold change /veh KRTAP5-7 /// NADSYN1 (11734609_at) / RFU RASL12 (11751679_a_at) / Fold change /veh RASL12 (11751679_a_at) / RFU CDKN2B (11736163_a_at) / Fold change /veh CDKN2B (11736163_a_at) / RFU PRF1 (11729649_at) / Fold change /veh PRF1 (11729649_at) / RFU, ZNF638 /// ZNF638-IT1 / Fold change vs veh, ZNF638 /// ZNF638-IT1 / RFU, PANK3 / Fold change vs veh, PANK3 / RFU, SH3YL1 / Fold change vs veh, SH3YL1 / RFU, ZEB2 / Fold change vs veh, ZEB2 / RFU, NRIP1 / Fold change vs veh, NRIP1 / RFU, PTTG1IP / Fold change vs veh, PTTG1IP / RFU, CAPN2 / Fold change vs veh, CAPN2 / RFU, MED14 / Fold change vs veh, MED14 / RFU, SNORA58 / Fold change vs veh, SNORA58 / RFU, C1orf63 / Fold change vs veh, C1orf63 / RFU, LRRFIP1 / Fold change vs veh, LRRFIP1 / RFU, NDUFAF7 / Fold change vs veh, NDUFAF7 / RFU, SLC12A2 / Fold change vs veh, SLC12A2 / RFU, IBTK / Fold change vs veh, IBTK / RFU, ESF1 / Fold change vs veh, ESF1 / Fold change vs veh, TMEM50B / RFU, TAOK1 / Fold change vs veh, TAOK1 / RFU, ACBD3 / Fold change vs veh, ACBD3 / RFU, TMA16 / Fold change vs veh, TMA16 / RFU, RWDD3 / Fold change vs veh, RWDD3 / RFU, BCAT1 / Fold change vs veh, BCAT1 / RFU, EDEM3 / Fold change vs veh, EDEM3 / RFU, TMEM33 / Fold change vs veh, TMEM33 / RFU, WDR75 / Fold change vs veh, WDR75 / RFU, AHCTF1 / Fold change vs veh, AHCTF1 / RFU, TFRC / Fold change vs veh, TFRC / RFU, ZDHHC17 / Fold change vs veh, ZDHHC17 / RFU, NOM1 / Fold change vs veh, NOM1 / RFU, ARL8B / Fold change vs veh, ARL8B / RFU, ZBTB11 / Fold change vs veh, ZBTB11 / RFU, TAMM41 / Fold change vs veh, TAMM41 / RFU, KIAA1704 /// LOC100996395 / Fold change vs veh, KIAA1704 /// LOC100996395 / RFU, ING1 / Fold change vs veh, ING1 / RFU, TRMT61B / Fold change vs veh, TRMT61B / RFU, FUBP3 / Fold change vs veh, FUBP3 / RFU, TP53 / Fold change vs veh, TP53 / RFU, TNKS2 / Fold change vs veh, TNKS2 / RFU, ZFP14 / Fold change vs veh, ZFP14 / RFU, ACTR2 / Fold change vs veh, ACTR2 / RFU, PPP3R1 / Fold change vs veh, PPP3R1 / RFU, PIK3R1 / Fold change vs veh, PIK3R1 / RFU, HNRNPA1 / Fold change vs veh, HNRNPA1 / RFU, RNF170 / Fold change vs veh, RNF170 / RFU, ZNF28 / Fold change vs veh, ZNF28 / RFU, RNGTT / Fold change vs veh, RNGTT / RFU, OGT / Fold change vs veh, OGT / RFU, BRD1 / Fold change vs veh, BRD1 / RFU, MARS / Fold change vs veh, MARS / RFU, ZNF655 / Fold change vs veh, ZNF655 / RFU, FAHD1 / Fold change vs veh, FAHD1 / RFU, BDP1 / Fold change vs veh, BDP1 / RFU, LRRCC1 / Fold change vs veh, LRRCC1 / RFU, ARID1A / Fold change vs veh, ARID1A / RFU, ZNF146 / Fold change vs veh, ZNF146 / RFU, ZNF330 / Fold change vs veh, ZNF330 / RFU, GPN3 / Fold change vs veh, GPN3 / RFU, C9orf123 / Fold change vs veh, C9orf123 / RFU, N4BP2L2 / Fold change vs veh, N4BP2L2 / RFU, ARFIP1 / Fold change vs veh, ARFIP1 / RFU, FAM179B / Fold change vs veh, FAM179B / RFU, BCL10 / Fold change vs veh, BCL10 / RFU, UHRF1BP1L / Fold change vs veh, UHRF1BP1L / RFU, BET1 / Fold change vs veh, BET1 / RFU, CNOT2 / Fold change vs veh, CNOT2 / RFU, ZNF268 / Fold change vs veh, ZNF268 / Fold change vs veh, ZNF507 / RFU, DGCR2 / Fold change vs veh, DGCR2 / RFU, WDSUB1 / Fold change vs veh, WDSUB1 / Fold change vs veh, HSP90B1 /// MIR3652 / RFU, ADSS / Fold change vs veh, ADSS / RFU, GK / Fold change vs veh, GK / RFU, ZNF148 / Fold change vs veh, ZNF148 / RFU, TAF9 / Fold change vs veh, TAF9 / RFU, SLC1A5 / Fold change vs veh, SLC1A5 / RFU, SLMO2 / Fold change vs veh, SLMO2 / RFU, ABCC4 / Fold change vs veh, ABCC4 / RFU, LOC101060439 /// RAP1B / Fold change vs veh, LOC101060439 /// RAP1B / RFU, RFX7 / Fold change vs veh, RFX7 / RFU, GTPBP10 / Fold change vs veh, GTPBP10 / RFU, CNEP1R1 / Fold change vs veh, CNEP1R1 / RFU, BIVM-ERCC5 /// ERCC5 / Fold change vs veh, BIVM-ERCC5 /// ERCC5 / RFU, ILF3 / Fold change vs veh, ILF3 / RFU 11762660_at / Fold change /veh 11762660_at / RFU VCAN (11757783_s_at) / Fold change /veh VCAN (11757783_s_at) / RFU DDX43 (11728927_at) / Fold change /veh DDX43 (11728927_at) / RFU KRT8 (11758188_x_at) / Fold change /veh KRT8 (11758188_x_at) / RFU NKD1 (11759106_at) / Fold change /veh NKD1 (11759106_at) / RFU SRD5A1 (11742802_a_at) / Fold change /veh SRD5A1 (11742802_a_at) / RFU TPSAB1 /// TPSB2 (11721975_s_at) / Fold change /veh TPSAB1 /// TPSB2 (11721975_s_at) / RFU GSTM3 (11746129_a_at) / Fold change /veh GSTM3 (11746129_a_at) / RFU IL23R (11737362_x_at) / Fold change /veh IL23R (11737362_x_at) / RFU TMEM51 (11727254_a_at) / Fold change /veh TMEM51 (11727254_a_at) / RFU PIWIL2 (11732686_x_at) / Fold change /veh PIWIL2 (11732686_x_at) / RFU ORM1 (11744905_x_at) / Fold change /veh ORM1 (11744905_x_at) / RFU CCDC152 (11743942_at) / Fold change /veh CCDC152 (11743942_at) / RFU ECM1 (11717891_a_at) / Fold change /veh ECM1 (11717891_a_at) / RFU IL23R (11748794_a_at) / Fold change /veh IL23R (11748794_a_at) / RFU TNFAIP8L3 (11732012_x_at) / Fold change /veh TNFAIP8L3 (11732012_x_at) / RFU MBOAT4 (11741988_at) / Fold change /veh MBOAT4 (11741988_at) / RFU 11764193_at / Fold change /veh 11764193_at / RFU TMEM53 (11763286_at) / Fold change /veh TMEM53 (11763286_at) / RFU MAGEB2 (11727129_at) / Fold change /veh MAGEB2 (11727129_at) / RFU TMEM200A (11744735_a_at) / Fold change /veh TMEM200A (11744735_a_at) / RFU CCDC152 (11751479_a_at) / Fold change /veh CCDC152 (11751479_a_at) / RFU FAM211A (11726209_a_at) / Fold change /veh FAM211A (11726209_a_at) / RFU RGS16 (11746705_a_at) / Fold change /veh RGS16 (11746705_a_at) / RFU VCAN (11755009_s_at) / Fold change /veh VCAN (11755009_s_at) / RFU RHOB (11743442_s_at) / Fold change /veh RHOB (11743442_s_at) / RFU RGS16 (11720943_a_at) / Fold change /veh RGS16 (11720943_a_at) / RFU RGS16 (11720944_at) / Fold change /veh RGS16 (11720944_at) / RFU, VPS4B / Fold change vs veh, VPS4B / RFU, CREB1 / Fold change vs veh, CREB1 / RFU, DNAJC13 / Fold change vs veh, DNAJC13 / RFU, GNAQ / Fold change vs veh, GNAQ / RFU, CDK5R1 / Fold change vs veh, CDK5R1 / RFU, ZRANB3 / Fold change vs veh, ZRANB3 / RFU, CUL4A / Fold change vs veh, CUL4A / RFU, CCNY / Fold change vs veh, CCNY / RFU, UFL1 / Fold change vs veh, UFL1 / RFU, COG3 / Fold change vs veh, COG3 / RFU, DIAPH2 / Fold change vs veh, DIAPH2 / RFU, SKA2 / Fold change vs veh, SKA2 / RFU, AFF3 / Fold change vs veh, AFF3 / RFU, LMF1 / Fold change vs veh, LMF1 / RFU, IPO11 / Fold change vs veh, IPO11 / RFU, DFFB / Fold change vs veh, DFFB / RFU, FOXP1 / Fold change vs veh, FOXP1 / RFU, CARD8 / Fold change vs veh, CARD8 / RFU, STRN3 / Fold change vs veh, STRN3 / RFU, ADK / Fold change vs veh, ADK / RFU, RASSF2 / Fold change vs veh, RASSF2 / RFU, WIPF1 / Fold change vs veh, WIPF1 / RFU, LARP1B / Fold change vs veh, LARP1B / RFU, RASA1 / Fold change vs veh, RASA1 / RFU, RB1 / Fold change vs veh, RB1 / RFU, PPFIA1 / Fold change vs veh, PPFIA1 / RFU, MAT2A / Fold change vs veh, MAT2A / RFU, CCT5 / Fold change vs veh, CCT5 / RFU, WDR92 / Fold change vs veh, WDR92 / RFU, CUX1 / Fold change vs veh, CUX1 / RFU, TTC7A / Fold change vs veh, TTC7A / RFU, TMEM135 / Fold change vs veh, TMEM135 / RFU, DEPTOR / Fold change vs veh, DEPTOR / RFU, CPM / Fold change vs veh, CPM / RFU, DNAJB6 / Fold change vs veh, DNAJB6 / RFU, CACNA2D3 / Fold change vs veh, CACNA2D3 / RFU, DTX4 / Fold change vs veh, DTX4 / RFU, TFCP2 / Fold change vs veh, TFCP2 / RFU, GMCL1 /// GMCL1P1 / Fold change vs veh, GMCL1 /// GMCL1P1 / RFU, AEBP2 / Fold change vs veh, AEBP2 / RFU, SNHG1 /// SNORD22 /// SNORD25 /// SNORD26 /// SNORD27 /// SNORD28 /// SNORD29 /// SNORD31 / Fold change vs veh, SNHG1 /// SNORD22 /// SNORD25 /// SNORD26 /// SNORD27 /// SNORD28 /// SNORD29 /// SNORD31 / Fold change (Aza/veh), C12orf56 (ProbeSet 11735607_a_at) / Fold change (ACY-1035/veh), C12orf56 (ProbeSet 11735607_a_at) / Fold change (Aza/veh), FGFR1OP (ProbeSet 11751329_s_at) / Fold change (ACY-1035/veh), FGFR1OP (ProbeSet 11751329_s_at) / Fold change (Aza/veh), VPS36 (ProbeSet 11739960_a_at) / Fold change (ACY-1035/veh), VPS36 (ProbeSet 11739960_a_at) / RFU SYPL1 (11715823_x_at) / Fold change /veh SYPL1 (11715823_x_at) / RFU IGFBP7 (11715501_s_at) / Fold change /veh IGFBP7 (11715501_s_at) / RFU REEP3 (11722064_at) / Fold change /veh REEP3 (11722064_at) / RFU IGLL1 (11728026_x_at) / Fold change /veh IGLL1 (11728026_x_at): dose or concentration left out as unconfirmed
Conditions: ProbeSet 11725902_s_at; LIST D

In the case of `Nc1ncn([C@@H]2O[C@H](CO)[C@@H](O)[C@H]2O)c(=O)n1` [azacitidine], the “RFU, TMEM135” value is reported as 62.37 RFU.
